Reference: the Kinase Knowledgebase extract (Sharma et al. 2016)

Legend:
[1] = biological target: EGFR (human), P00533 [L858R]
EGFR (human) = EGFR (human) (UniProt P00533)
[2] = biological target: EGFR (Human), P00533 [T790M/L858R]; conditions: baf3
[3] = biological target: EGFR (Human), P00533 [Assessment of EGFR-Del T790M Dependent Cell Proliferation in BaF3 Cells]
[4] = biological target: EGFR (Human), P00533 [T790M/L858R]

Chain of EGFR (Human), P00533 [Assessment of EGFR-Del T790M Dependent Cell Proliferation in BaF3 Cells] (P00533 whole entry, looked up, stated change not applied): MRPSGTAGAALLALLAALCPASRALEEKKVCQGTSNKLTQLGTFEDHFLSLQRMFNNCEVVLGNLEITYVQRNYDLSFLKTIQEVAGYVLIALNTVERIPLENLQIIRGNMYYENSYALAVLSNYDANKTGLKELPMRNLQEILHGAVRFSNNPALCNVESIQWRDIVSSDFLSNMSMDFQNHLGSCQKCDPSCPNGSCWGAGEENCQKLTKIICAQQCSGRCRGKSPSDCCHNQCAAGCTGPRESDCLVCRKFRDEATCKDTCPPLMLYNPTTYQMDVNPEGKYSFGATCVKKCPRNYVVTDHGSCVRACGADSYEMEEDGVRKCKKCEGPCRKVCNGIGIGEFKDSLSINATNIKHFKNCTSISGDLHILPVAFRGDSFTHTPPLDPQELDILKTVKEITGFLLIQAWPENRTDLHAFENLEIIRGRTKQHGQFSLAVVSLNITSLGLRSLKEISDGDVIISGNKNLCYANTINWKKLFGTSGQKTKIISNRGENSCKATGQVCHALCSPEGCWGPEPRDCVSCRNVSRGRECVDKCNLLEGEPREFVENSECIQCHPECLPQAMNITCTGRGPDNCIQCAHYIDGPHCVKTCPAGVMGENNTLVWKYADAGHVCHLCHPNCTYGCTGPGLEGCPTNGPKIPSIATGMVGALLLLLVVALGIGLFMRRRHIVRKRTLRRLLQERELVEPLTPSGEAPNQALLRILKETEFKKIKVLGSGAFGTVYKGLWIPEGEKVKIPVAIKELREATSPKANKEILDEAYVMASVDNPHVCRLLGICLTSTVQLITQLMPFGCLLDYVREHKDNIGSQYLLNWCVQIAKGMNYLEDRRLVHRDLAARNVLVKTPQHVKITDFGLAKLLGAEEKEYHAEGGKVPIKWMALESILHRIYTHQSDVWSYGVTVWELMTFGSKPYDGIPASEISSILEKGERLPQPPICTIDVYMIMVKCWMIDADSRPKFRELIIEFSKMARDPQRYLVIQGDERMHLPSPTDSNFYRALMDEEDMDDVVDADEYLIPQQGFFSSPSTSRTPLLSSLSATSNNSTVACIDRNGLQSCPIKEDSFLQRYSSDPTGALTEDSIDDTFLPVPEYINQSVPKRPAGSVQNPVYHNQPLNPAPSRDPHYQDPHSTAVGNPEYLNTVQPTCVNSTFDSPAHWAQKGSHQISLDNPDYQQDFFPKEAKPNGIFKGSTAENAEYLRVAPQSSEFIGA
Chain of EGFR (human) (P00533 whole entry, looked up): as the sequence (P00533 whole entry, looked up, stated change not applied) above
Chain of EGFR (Human), P00533 [T790M/L858R] (P00533 whole entry T790M/L858R, looked up): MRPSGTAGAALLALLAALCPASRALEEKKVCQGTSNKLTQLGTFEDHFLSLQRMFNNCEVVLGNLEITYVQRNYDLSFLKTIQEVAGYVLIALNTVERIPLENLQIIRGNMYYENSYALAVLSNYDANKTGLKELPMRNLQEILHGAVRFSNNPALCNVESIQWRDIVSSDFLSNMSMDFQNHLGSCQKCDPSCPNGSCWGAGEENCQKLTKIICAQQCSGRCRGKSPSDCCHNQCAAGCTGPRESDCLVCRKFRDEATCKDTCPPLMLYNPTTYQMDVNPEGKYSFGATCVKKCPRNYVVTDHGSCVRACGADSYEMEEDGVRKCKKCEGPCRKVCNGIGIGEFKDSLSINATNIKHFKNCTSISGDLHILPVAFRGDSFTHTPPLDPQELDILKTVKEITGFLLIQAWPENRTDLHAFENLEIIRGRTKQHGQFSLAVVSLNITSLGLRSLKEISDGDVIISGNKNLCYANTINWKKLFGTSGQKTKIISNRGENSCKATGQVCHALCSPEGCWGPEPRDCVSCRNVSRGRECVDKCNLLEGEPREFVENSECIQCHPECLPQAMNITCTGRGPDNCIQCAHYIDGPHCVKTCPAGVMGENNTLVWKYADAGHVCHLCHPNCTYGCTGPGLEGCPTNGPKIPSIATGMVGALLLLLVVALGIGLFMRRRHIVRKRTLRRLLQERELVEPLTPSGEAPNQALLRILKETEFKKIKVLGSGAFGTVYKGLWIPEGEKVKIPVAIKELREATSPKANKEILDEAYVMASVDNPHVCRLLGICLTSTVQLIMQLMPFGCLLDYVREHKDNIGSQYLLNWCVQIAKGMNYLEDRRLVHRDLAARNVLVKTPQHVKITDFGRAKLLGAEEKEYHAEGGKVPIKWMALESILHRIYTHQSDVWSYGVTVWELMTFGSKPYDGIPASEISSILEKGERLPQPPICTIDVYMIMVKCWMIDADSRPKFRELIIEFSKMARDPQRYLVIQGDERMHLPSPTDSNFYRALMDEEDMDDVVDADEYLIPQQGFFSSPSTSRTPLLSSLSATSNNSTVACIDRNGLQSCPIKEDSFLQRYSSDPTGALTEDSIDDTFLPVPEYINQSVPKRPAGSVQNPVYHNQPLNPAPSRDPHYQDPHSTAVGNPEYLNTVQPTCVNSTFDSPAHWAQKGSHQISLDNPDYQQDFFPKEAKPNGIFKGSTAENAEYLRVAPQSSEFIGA
Chain of EGFR (human), P00533 [L858R] (P00533 whole entry L858R, looked up): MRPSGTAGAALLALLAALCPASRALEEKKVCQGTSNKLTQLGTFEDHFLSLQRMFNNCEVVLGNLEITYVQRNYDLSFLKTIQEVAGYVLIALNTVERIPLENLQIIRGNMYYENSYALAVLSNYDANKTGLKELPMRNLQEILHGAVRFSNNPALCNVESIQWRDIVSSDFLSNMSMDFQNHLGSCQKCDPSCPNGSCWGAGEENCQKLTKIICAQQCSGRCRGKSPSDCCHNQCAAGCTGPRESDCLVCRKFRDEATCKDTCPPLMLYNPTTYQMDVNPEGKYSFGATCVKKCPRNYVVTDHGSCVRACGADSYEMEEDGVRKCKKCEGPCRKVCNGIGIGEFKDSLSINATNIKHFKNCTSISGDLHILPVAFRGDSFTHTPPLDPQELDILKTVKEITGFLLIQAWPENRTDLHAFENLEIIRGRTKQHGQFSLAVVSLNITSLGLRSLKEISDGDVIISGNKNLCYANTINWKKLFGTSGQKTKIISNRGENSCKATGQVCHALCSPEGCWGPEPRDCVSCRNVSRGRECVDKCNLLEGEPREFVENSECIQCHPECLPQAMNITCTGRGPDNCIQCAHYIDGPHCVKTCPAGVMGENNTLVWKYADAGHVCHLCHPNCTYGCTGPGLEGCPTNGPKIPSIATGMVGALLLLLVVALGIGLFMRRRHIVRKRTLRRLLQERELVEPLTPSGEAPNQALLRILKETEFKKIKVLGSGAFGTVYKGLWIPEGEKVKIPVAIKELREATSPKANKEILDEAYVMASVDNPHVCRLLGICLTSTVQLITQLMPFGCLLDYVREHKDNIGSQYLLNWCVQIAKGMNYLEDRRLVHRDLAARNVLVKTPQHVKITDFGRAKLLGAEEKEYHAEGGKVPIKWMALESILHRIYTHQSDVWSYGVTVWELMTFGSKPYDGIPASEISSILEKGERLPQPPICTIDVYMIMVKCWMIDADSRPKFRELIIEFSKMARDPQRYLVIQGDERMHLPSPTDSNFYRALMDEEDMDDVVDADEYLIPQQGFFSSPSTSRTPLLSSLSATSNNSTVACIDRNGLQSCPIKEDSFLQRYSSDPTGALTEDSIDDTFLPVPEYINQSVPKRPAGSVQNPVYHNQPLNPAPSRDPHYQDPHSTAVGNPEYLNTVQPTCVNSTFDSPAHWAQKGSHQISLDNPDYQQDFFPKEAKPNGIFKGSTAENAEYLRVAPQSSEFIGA

Compound	IC50 [1] [µM]	IC50 (EGFR (human)) [µM]	IC50 [2] [µM]	IC50 [3] [µM]	IC50 [4] [µM]
C=CC(=O)Nc1cc(Nc2ncc(Cl)c(Nc3ccccc3P(C)(C)=O)n2)c(OC)cc1N1CCN(C2CCN(C)CC2)CC1	< 0.05	< 0.05	0.101 to 0.25	0.05 to 0.1	< 0.05
COCCC#CC(=O)Nc1cc(Nc2ncc(Cl)c(Nc3ccccc3P(C)(C)=O)n2)c(OC)cc1N1CCOCC1	< 0.05	< 0.05	< 0.05	< 0.05	< 0.05
C=CC(=O)Nc1cc(Nc2ncc(Cl)c(Nc3ccccc3P(C)(C)=O)n2)c(OC)cc1C#CCN1CCCCC1	< 0.05	< 0.05	< 0.05	< 0.05	< 0.05
COc1cc(F)c(NC(=O)CCl)cc1Nc1ncc(Cl)c(Nc2ccccc2P(C)(C)=O)n1	< 0.05	< 0.05	< 0.05	< 0.05	< 0.05
C=CC(=O)Nc1cc(Nc2ncc(Cl)c(Nc3ccccc3P(C)(C)=O)n2)c(OC)cc1N1CCC(N2CCCC2)CC1	< 0.05	0.05 to 0.1	0.101 to 0.25	< 0.05	< 0.05
C=CC(=O)Nc1cc(Nc2ncc(Cl)c(Nc3ccccc3P(C)(C)=O)n2)c(OC)cc1OC(COC)CN1CCC1 (stereo not given)	< 0.05	< 0.05	< 0.05	< 0.05	< 0.05
COc1cc(N2CCOCC2)c(NC(=O)C#CCCN2CCN(C)CC2)cc1Nc1ncc(Cl)c(Nc2ccccc2P(C)(C)=O)n1	< 0.05	< 0.05	< 0.05	< 0.05	< 0.05
C=CC(=O)Nc1cc(Nc2ncc(Cl)c(Nc3ccccc3P(C)(C)=O)n2)c(OC)cc1OC1CCCN(C)C1 (stereo not given)	< 0.05	< 0.05	< 0.05	< 0.05	< 0.05
C=CC(=O)Nc1cc(Nc2ncc(Cl)c(Nc3ccccc3P(C)(C)=O)n2)c(C)cc1OC(COC)CN(C)C (stereo not given)	< 0.05	< 0.05	< 0.05	< 0.05	< 0.05
COc1ccc(NC(=O)CCl)cc1Nc1ncc(Cl)c(Nc2ccccc2P(C)(C)=O)n1	< 0.05	< 0.05	< 0.05	< 0.05	< 0.05
C=CC(=O)Nc1ccc(CC)c(Nc2ncc(Cl)c(Nc3ccccc3P(C)(C)=O)n2)c1	< 0.05	< 0.05	< 0.05	< 0.05	< 0.05
C=CC(=O)Nc1cc(Nc2ncc(Cl)c(Nc3ccccc3P(C)(C)=O)n2)c(OC)cc1N1CCC(N2CCOCC2)CC1	< 0.05	< 0.05	< 0.05	< 0.05	< 0.05
C=CC(=O)Nc1ccc(OC)c(Nc2ncc(Cl)c(Nc3ccc(OCCN4CCCCC4)cc3P(C)(C)=O)n2)c1	< 0.05	< 0.05	< 0.05	< 0.05	< 0.05
C=CC(=O)Nc1cc(Nc2ncc(Cl)c(Nc3ccccc3P(C)(C)=O)n2)c(OC)cc1N1CCC(N(CC)CC)C1 (stereo not given)	< 0.05	< 0.05	< 0.05	< 0.05	< 0.05
C=CC(=O)Nc1ccc(OC(F)(F)F)c(Nc2ncc(Cl)c(Nc3ccccc3P(C)(C)=O)n2)c1	< 0.05	< 0.05	< 0.05	< 0.05	< 0.05
C=CC(=O)Nc1cc(Nc2ncc(Cl)c(Nc3ccccc3P(C)(C)=O)n2)c(OC)cc1C#CCN1CCCCCC1	< 0.05	< 0.05	< 0.05	< 0.05	< 0.05
COc1cc(F)c(NC(=O)C#CCN(C)C)cc1Nc1ncc(Cl)c(Nc2ccccc2P(C)(C)=O)n1	< 0.05	< 0.05	< 0.05	< 0.05	< 0.05
C=CC(=O)Nc1ccc(OC)c(Nc2ncc(Cl)c(Nc3ccc(OCCN(C)C)cc3P(C)(C)=O)n2)c1	< 0.05	< 0.05	< 0.05	< 0.05	< 0.05
C=CC(=O)Nc1cc(Nc2ncc(Cl)c(Nc3ccccc3P(C)(C)=O)n2)c(OC)cc1OC(CF)CN(CC)CC (stereo not given)	< 0.05	< 0.05	< 0.05	< 0.05	< 0.05
C=CC(=O)Nc1cc(Nc2ncc(Cl)c(Nc3ccccc3P(C)(C)=O)n2)c(OC)cc1CN1CCN(C)CC1	< 0.05	< 0.05	0.05 to 0.1	< 0.05	< 0.05
C=CC(=O)Nc1cc(Nc2ncc(Cl)c(Nc3ccccc3P(C)(C)=O)n2)c(OC)cc1C#CCN(C)C(C)C	< 0.05	< 0.05	< 0.05	< 0.05	< 0.05
